Results taken from paper PMC8591201, “Anti-Tumor Activity of AZD4547 Against NTRK1 Fusion Positive Cancer Cells Through Inhibition of NTRKs” (Frontiers in Oncology, 2021).

Tests used:
TRKA [1] = system: T1, TRKA; assay: cells; design: species or system Ba/F3; CellTiter-Glo anti-proliferation of Ba/F3 cells transformed with ETV6-NTRK fusions; conditions: Mus musculus, BaF3, 72 h; read-out: AZD4547 GI50
T1 construct: ETV6 (1-336)-NTRK1 kinase domain (434-790) fusion expressed in Ba/F3
Experimental: (§1) To obtain the GI50 value of a substance, cell viability was measured using MTT (G4000, Promega, USA) for KM12(Luc) cell and Cell titer glo (G7572, Promega, USA) for other cell lines. For adherent cells, cells were seeded at 5,000 cells/well in a 96-well plate and treated with a substance one day after cell seeding. For suspension cells, 10,000 cells/well were seeded and the substance was treated after 4 h stabilization of cells. The substance was treated at 10 points of 1:3 serial dilution (0–100 µmol/L) for 72 h. For MTT assay, 15 µL dye solution was added to each well and incubated 4 h at 37°C. 100 µL of solubilization solution was added and followed 1 hr incubation. Absorbance at 570 nm of each well was recorded using EnVision microplate reader (Perkin Elmer). For Cell titer glo assay, Cell titer glo reagent was treated in each well and measured the luminescence by EnVision microplate reader (Perkin Elmer). Viable cells in each well were normalized by using 0.5% DMSO-treated wells (100%). The inhibitor dose−response curve was fitted and GI50 values were calculated using Prism 7.0 software (GraphPad). All assays were performed in duplicate and the standard deviation (SD) was determined from two independent experiments. To investigate the inhibitory activity of AZD4547 against clinically relevant TRK mutants which have resistance to the known TRK inhibitors ([8], [44]), we established Ba/F3 cell lines harboring the ETV6-NTRKs fusion genes (NTRK1, NTRK1G595R, NTRK1G667A, NTRK1G667C, NTRK1G667S and NTRK2) ( Supplementary Figure 2 ). The mutation status of each established cell line was confirmed by sequencing of its cDNA ( Supplementary Figure 2 ). The anti-proliferation activity of AZD4547 was then measured in each cell line ( Figure 2A and Table S2 ). […] However, AZD4547 has no inhibitory activity against Ba/F3 harboring clinically relevant TRKs mutants including TRKA G595R, TRKA G667S, TRKA G667C and TRKA G667A. We next evaluated if AZD4547 is capable of suppressing the phosphorylation of TRKA/B in Ba/F3 cell lines ( Figure 2B ). […] Also, phosphorylation of TRKA/B is almost completely abolished using 1 µM of AZD4547. […] (A) Summary of GI50s of AZD4547 against Ba/F3: TRKA mutants or TRKB. Cell viability after 72 h exposure to the indicated inhibitors, determined by using a cell titer glo assay in duplicate mode. Data was plotted as mean GI50 ± SD of two independent experiments. (B) AZD4547 inhibits phosphorylation of TRKA/B and PLC-gamma in Ba/F3 harboring TRKA and TRKB, respectively. […] Data are representative of three independent experiments.

TRKA G667S = system: T2, TRKA G667S; assay: cells; design: species or system Ba/F3; CellTiter-Glo anti-proliferation of Ba/F3 cells transformed with ETV6-NTRK fusions; conditions: Mus musculus, BaF3, 72 h; read-out: AZD4547 GI50
T2 construct: ETV6 (1-336)-NTRK1 kinase domain (434-790) fusion expressed in Ba/F3
Experimental: as §1

TRKA G595R = system: T3, TRKA G595R; assay: cells; design: species or system Ba/F3; CellTiter-Glo anti-proliferation of Ba/F3 cells transformed with ETV6-NTRK fusions; conditions: Mus musculus, BaF3, 72 h; read-out: AZD4547 GI50
T3 construct: ETV6 (1-336)-NTRK1 kinase domain (434-790) fusion expressed in Ba/F3
Experimental: as §1

TRKA G667C = system: T4, TRKA G667C; assay: cells; design: species or system Ba/F3; CellTiter-Glo anti-proliferation of Ba/F3 cells transformed with ETV6-NTRK fusions; conditions: Mus musculus, BaF3, 72 h; read-out: AZD4547 GI50
T4 construct: ETV6 (1-336)-NTRK1 kinase domain (434-790) fusion expressed in Ba/F3
Experimental: as §1

TRKB = system: T5, TRKB; assay: cells; design: species or system Ba/F3; CellTiter-Glo anti-proliferation of Ba/F3 cells transformed with ETV6-NTRK fusions; conditions: Mus musculus, BaF3, 72 h; read-out: AZD4547 GI50
T5 construct: ETV6 (1-336)-NTRK2 kinase domain (455-822) fusion expressed in Ba/F3
Experimental: as §1

TRKA [2] = molecular target: T6, TRKA (Homo sapiens, UniProt P04629); assay: radiometric biochemical kinase assay
T6 construct: gene NTRK1
T6 sequence (P04629 33-796): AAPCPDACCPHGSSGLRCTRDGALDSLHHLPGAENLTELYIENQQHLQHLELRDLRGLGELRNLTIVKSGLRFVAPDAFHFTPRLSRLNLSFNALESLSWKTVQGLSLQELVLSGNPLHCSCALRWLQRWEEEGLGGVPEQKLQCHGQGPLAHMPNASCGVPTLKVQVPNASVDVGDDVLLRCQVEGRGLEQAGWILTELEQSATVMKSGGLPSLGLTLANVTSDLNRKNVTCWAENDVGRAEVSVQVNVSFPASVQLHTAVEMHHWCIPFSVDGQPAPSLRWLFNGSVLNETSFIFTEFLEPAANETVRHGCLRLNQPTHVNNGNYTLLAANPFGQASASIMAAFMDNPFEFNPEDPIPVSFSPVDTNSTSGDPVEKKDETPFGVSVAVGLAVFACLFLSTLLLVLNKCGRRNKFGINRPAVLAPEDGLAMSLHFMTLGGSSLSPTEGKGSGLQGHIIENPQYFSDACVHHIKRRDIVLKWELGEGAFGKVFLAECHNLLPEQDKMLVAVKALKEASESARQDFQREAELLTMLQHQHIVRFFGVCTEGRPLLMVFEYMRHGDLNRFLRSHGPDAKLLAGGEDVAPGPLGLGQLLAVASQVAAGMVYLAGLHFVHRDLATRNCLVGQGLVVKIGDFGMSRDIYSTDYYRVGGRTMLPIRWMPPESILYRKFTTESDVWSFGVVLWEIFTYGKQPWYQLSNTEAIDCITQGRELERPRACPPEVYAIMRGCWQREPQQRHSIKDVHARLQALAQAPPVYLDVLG

TRKC = molecular target: T7, TRKC (Homo sapiens, UniProt Q16288); assay: radiometric biochemical kinase assay
T7 construct: gene NTRK3
T7 sequence (Q16288 32-839): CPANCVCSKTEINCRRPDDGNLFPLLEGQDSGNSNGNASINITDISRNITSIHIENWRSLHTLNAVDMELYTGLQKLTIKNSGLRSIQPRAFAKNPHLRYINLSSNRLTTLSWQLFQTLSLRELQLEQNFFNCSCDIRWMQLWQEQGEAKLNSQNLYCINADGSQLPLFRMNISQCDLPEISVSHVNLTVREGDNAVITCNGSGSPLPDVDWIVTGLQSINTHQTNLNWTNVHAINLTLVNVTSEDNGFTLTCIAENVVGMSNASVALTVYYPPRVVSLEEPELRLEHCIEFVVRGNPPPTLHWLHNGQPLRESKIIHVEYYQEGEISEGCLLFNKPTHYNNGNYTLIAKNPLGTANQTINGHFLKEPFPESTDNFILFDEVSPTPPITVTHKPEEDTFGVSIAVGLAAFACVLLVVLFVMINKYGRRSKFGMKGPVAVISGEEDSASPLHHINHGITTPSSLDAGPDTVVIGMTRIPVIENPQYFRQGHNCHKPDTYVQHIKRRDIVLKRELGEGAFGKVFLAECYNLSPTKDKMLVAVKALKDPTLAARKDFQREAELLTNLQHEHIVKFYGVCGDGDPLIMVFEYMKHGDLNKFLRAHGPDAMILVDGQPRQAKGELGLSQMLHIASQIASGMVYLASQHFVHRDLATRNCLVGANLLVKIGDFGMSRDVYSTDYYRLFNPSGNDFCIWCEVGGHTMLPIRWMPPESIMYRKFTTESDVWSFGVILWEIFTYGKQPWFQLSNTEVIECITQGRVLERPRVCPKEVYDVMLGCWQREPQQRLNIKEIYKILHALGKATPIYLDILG

## COc1cc(CCc2cc(NC(=O)c3ccc(N4C[C@@H](C)N[C@@H](C)C4)cc3)n[nH]2)cc(OC)c1 [AZD4547]
TRKA [1]
  GI50: 66 ± 11.5 nM
TRKA G667S
  GI50: > 2000 nM
TRKA G595R
  GI50: > 2000 nM
TRKA G667C
  GI50: > 2000 nM
TRKB
  GI50: 104 ± 6.1 nM
TRKA [2]
  IC50: 8.8 nM
TRKC
  IC50: 1 nM
